Experiments:
Assay type in all cases: in vivo
[1] = test system: Alopecurus myosuroides (ALOMY); assay: Pre-emergence herbicidal activity, glasshouse pot test; settings: 480 h, rate 250 g/ha, evaluated 20 days later, 100=total damage to plant, 0=no damage to plant
Procedure: (§1) Monocotyledonous and dicotyledonous test plants were sown in standard soil in pots. After cultivation for one day (pre-emergence) or after 10 days cultivation (post-emergence) under controlled conditions in a glasshouse, the plants were sprayed with an aqueous spray solution derived from the formulation of the technical active ingredient in 0.6 ml acetone and 45 ml formulation solution containing 10.6% Emulsogen EL (Registry number 61791-12-6), 42.2% N-methylpyrrolidone, 42.2% dipropylene glycol monomethyl ether (Registry number 34590-94-8) and 0.2% X-77 (Registry number 11097-66-8). The test plants were then grown in a greenhouse under optimum conditions until, 15 days later for post-emergence and 20 days for pre-emergence, the test was evaluated (100=total damage to plant; 0=no damage to plant). Test Plants: Alopecurus myosuroides (ALOMY), Avena fatua (AVEFA), Lolium perenne (LOLPE), Setaria faberi (SETFA), Digitaria sanguinalis (DIGSA), Echinochloa crus-galli (ECHCG)

Avena fatua (AVEFA) [2] = assay: as above; settings: 480 h, rate 250 g/ha, evaluated 20 days later, 100=total damage to plant, 0=no damage to plant
Procedure: as §1

[3] = test system: Digitaria sanguinalis (DIGSA); assay: as above; settings: 480 h, rate 250 g/ha, evaluated 20 days later, 100=total damage to plant, 0=no damage to plant
Procedure: as §1

[4] = test system: Echinochloa crus-galli (ECHCG); assay: as above; settings: 480 h, rate 250 g/ha, evaluated 20 days later, 100=total damage to plant, 0=no damage to plant
Procedure: as §1

Lolium perenne (LOLPE) [5] = assay: as above; settings: 480 h, rate 250 g/ha, evaluated 20 days later, 100=total damage to plant, 0=no damage to plant
Procedure: as §1

Setaria faberi (SETFA) [6] = assay: as above; settings: 480 h, rate 250 g/ha, evaluated 20 days later, 100=total damage to plant, 0=no damage to plant
Procedure: as §1

[7] = test system: Alopecurus myosuroides (ALOMY); assay: Post-emergence herbicidal activity, glasshouse pot test; settings: 360 h, rate 125 g/ha, evaluated 15 days later, 100=total damage to plant, 0=no damage to plant
Procedure: as §1

Avena fatua (AVEFA) [8] = assay: as above; settings: 360 h, rate 125 g/ha, evaluated 15 days later, 100=total damage to plant, 0=no damage to plant
Procedure: as §1

[9] = test system: Digitaria sanguinalis (DIGSA); assay: as above; settings: 360 h, rate 125 g/ha, evaluated 15 days later, 100=total damage to plant, 0=no damage to plant
Procedure: as §1

[10] = test system: Echinochloa crus-galli (ECHCG); assay: as above; settings: 360 h, rate 125 g/ha, evaluated 15 days later, 100=total damage to plant, 0=no damage to plant
Procedure: as §1

Lolium perenne (LOLPE) [11] = assay: as above; settings: 360 h, rate 125 g/ha, evaluated 15 days later, 100=total damage to plant, 0=no damage to plant
Procedure: as §1

Setaria faberi (SETFA) [12] = assay: as above; settings: 360 h, rate 125 g/ha, evaluated 15 days later, 100=total damage to plant, 0=no damage to plant
Procedure: as §1

Row | Compound | pest or weed control at 250 g/ha [1] | pest or weed control at 250 g/ha (Avena fatua (AVEFA) [2]) | pest or weed control at 250 g/ha [3] | pest or weed control at 250 g/ha [4] | pest or weed control at 250 g/ha (Lolium perenne (LOLPE) [5]) | pest or weed control at 250 g/ha (Setaria faberi (SETFA) [6]) | pest or weed control at 125 g/ha [7] | pest or weed control at 125 g/ha (Avena fatua (AVEFA) [8]) | pest or weed control at 125 g/ha [9] | pest or weed control at 125 g/ha [10] | pest or weed control at 125 g/ha (Lolium perenne (LOLPE) [11]) | pest or weed control at 125 g/ha (Setaria faberi (SETFA) [12])
1 | CCc1ccc(-c2ccc(Cl)c(C(F)(F)F)c2)cc1C1=C(O)[C@H]2[C@@H](C1=O)[C@]1(C)CC[C@@]2(C)O1 [Compound T31] | 0% | 50% | 30% | 60% | 20% | 10% | 90% | 80% | 100% | 100% | 40% | 100%
2 | Cc1cc(-c2ccc(C(F)(F)F)cc2)cc(C)c1C1C(=O)[C@@H]2[C@H](C1=O)[C@H]1CC[C@@H]2O1 (stereo partly drawn) [Compound T26] | 0% | 0% | 70% | 70% | 0% | 70% | 30% | 20% | 90% | 90% | 30% | 100%
3 | CCc1ccc(-c2ccc(Cl)c(Cl)c2F)cc1C1=C(O)[C@H]2[C@@H](C1=O)[C@]1(C)CC[C@@]2(C)O1 [Compound T40] | 10% | 10% | 100% | 50% | 0% | 70% | 60% | 40% | 100% | 100% | 30% | 80%
4 | Cc1cc(-c2ccccc2)cc(C)c1C1=C(OC(=O)C(C)(C)C)[C@H]2[C@@H](C1=O)[C@]1(C)CC[C@H]2O1 [Compound P7] | 100% | 90% | 100% | 90% | 100% | 100% | 100% | 100% | 100% | 100% | 80% | 100%
5 | Cc1cc(-c2ccccc2)cc(C)c1C1=C(OC(=O)c2c(C)noc2C)[C@H]2[C@@H](C1=O)[C@@H]1CC[C@H]2O1 [Compound P4] | 100% | 50% | 100% | 100% | 90% | 100% | 100% | 90% | 80% | 100% | 90% | 80%
6 | CCc1ccc(-c2ccc(Cl)c(F)c2)cc1C1=C(O)[C@H]2[C@@H](C1=O)[C@@H]1CC[C@H]2O1 [Compound T19] | 70% | 70% | 100% | 90% | 60% | 90% | 100% | 100% | 100% | 100% | 90% | 100%
7 | CCc1ccc(-c2ccc(Cl)s2)cc1C1=C(O)[C@H]2[C@@H](C1=O)[C@]1(C)CC[C@@]2(C)O1 [Compound T32] | 30% | 0% | 30% | 70% | 60% | 100% | 70% | 70% | 70% | 100% | 60% | 70%
8 | CCc1ccc(-c2ccc(Cl)cc2)cc1C1=C(O)[C@H]2[C@@H](C1=O)[C@]1(C)C=C[C@@]2(C)O1 [Compound T12] | 70% | 20% | 100% | 90% | 60% | 100% | 100% | 100% | 100% | 100% | 80% | 100%
9 | CCc1ccc(-c2ccc(Cl)cc2C)cc1C1=C(O)[C@H]2[C@@H](C1=O)[C@@H]1CC[C@H]2O1 [Compound T13] | 40% | 20% | 80% | 70% | 30% | 80% | 50% | 30% | 10% | 100% | 40% | 80%
10 | CCc1ccc(-c2ccc(Cl)cc2C)cc1C1=C(O)[C@H]2[C@@H](C1=O)[C@]1(C)CC[C@@]2(C)O1 [Compound T28] | 0% | 30% | 30% | 0% | 40% | 20% | 90% | 90% | 70% | 100% | 50% | 100%
11 | Cc1cc(-c2ccccc2)cc(C)c1C1=C(OC(=O)C(C)(C)C)[C@H]2[C@@H](C1=O)[C@]1(C)CC[C@@]2(C)O1 [Compound P5] | 100% | 0% | 100% | 70% | 70% | 100% | 70% | 20% | 100% | 100% | 40% | 90%
12 | CCc1cc(-c2ccc(C)cc2)cc(CC)c1C1C(=O)[C@@H]2[C@H](C1=O)[C@H]1CC[C@@H]2O1 (stereo partly drawn) [Compound T9] | 70% | 50% | 60% | 100% | 80% | 50% | 80% | 20% | 80% | 100% | 80% | 70%
13 | Cc1cc(-c2ccccc2)cc(C)c1C1C(=O)[C@@H]2[C@H](C1=O)[C@H]1CC[C@@H]2O1 (mixture of isomers) [Compound T6, (1RS,2SR,6RS,7SR)-4-(3,5-dimethylbiphen-4-yl)-10-oxa-tricyclo[5.2.1.0^2,6]decane-3,5-dione] | 50% | 0% | 80% | 100% | 70% | 100% | 80% | 30% | 30% | 70% | 50% | 60%
14 | CCc1ccc(-c2ccc(Cl)c(OC)c2)cc1C1=C(O)[C@H]2[C@@H](C1=O)[C@@H]1CC[C@H]2O1 [Compound T15] | 20% | 10% | 90% | 100% | 20% | 80% | 100% | 90% | 100% | 100% | 40% | 100%
